Experiment [1] has as its target T1, H3 K9 (unmethylated, FAM-QTAR-K-STG-NH2) (Homo sapiens, UniProt P68431).
T1 construct: peptide consisting of residues 5-11 of histone 3 (H3 K9Men); made in house; host or cells: solid-phase chemical peptide synthesis
The experiment in a line: Fluorescence anisotropy binding of A2B receptors to FAM-labeled histone 3 peptide. How it is done:
(§1) Fluorescence anisotropy was used to measure the dissociation constant of rac- and meso-A2B to a peptide consisting of residues 5-11 of histone 3 (H3 K9Men), with each of the methylation states at Lys 9 as well as an N-terminal carboxyfluorescein (FAM) for fluorescence detection. Binding affinities for H3 K9Me3 were also confirmed by ITC (see below).
(§2) H3 K9Men: FAM-QTAR-KMen-STG-NH2, n=0-3
(§3) Fluorescence Anisotropy. Binding assays were performed with purified rac- or meso-A2B and fluorescein labeled histone 3 peptides. Assays were prepared in 384-well plates (Corning) with a total volume of 50 μL per well, containing 20 μM labeled peptide and increasing concentrations of A2B in buffer (10 mM phosphate pH 8.5). Plates were spun down and allowed to incubate for at least 30 minutes before analysis. Fluorescence anisotropy was measured on a PHERAstar (BMG Labtech) using FP485, 520A, and 520B filters at 27° C. The anisotropy data was plotted as a function A2B concentration and each plot was fitted in KaleidaGraph to the following equation (Wang, Y.; Killian, J.; Hamasaki, K.; Rando, R. R. Biochemistry 1996, 35, 12338-12346):
(§4) where r is fluorescence anisotropy, ro is the initial anisotropy value, r∞ is the maximum anisotropy value, a is the peptide concentration, x is the concentration of A2B, and kd is the dissociation constant. All measurements were taken in duplicate or triplicate.
On the technique in general: Fluorescence polarisation rises when a labelled molecule tumbles more slowly, as on binding a larger partner.

Experiment [2] deals with T2, H3 K9Me (FAM-QTAR-KMe-STG-NH2) (Homo sapiens, UniProt P68431).
T2 construct: peptide consisting of residues 5-11 of histone 3 (H3 K9Men); made in house; host or cells: solid-phase chemical peptide synthesis
The experiment is described as above. The settings on record: 27° C., 10 mM phosphate buffer pH 8.5; errors in parentheses. How it is done: as §1, §2, §3, §4

The target of experiment [3] is T3, H3 K9Me2 (FAM-QTAR-KMe2-STG-NH2) (Homo sapiens, UniProt P68431).
T3 construct: peptide consisting of residues 5-11 of histone 3 (H3 K9Men); made in house; host or cells: solid-phase chemical peptide synthesis
Described as above. Particulars: 27° C., 10 mM phosphate buffer pH 8.5; errors in parentheses. How it is done:
as §1, §2, §3, §4

Experiment [4] deals with T4, H3 K9Me3 (FAM-QTAR-KMe3-STG-NH2) (Homo sapiens, UniProt P68431).
T4 construct: peptide consisting of residues 5-11 of histone 3 (H3 K9Men); made in house; host or cells: solid-phase chemical peptide synthesis
Described as above. Particulars: for Kd: 27° C., 10 mM phosphate buffer pH 8.5, errors in parentheses; for Affinity for H3 K9Me3 peptide (in words): fluorescence anisotropy. As for the experimental part: as §1, §2, §3, §4

A further experiment concerns the target T5, H3 K9Me3 R8G (Homo sapiens, UniProt P68431, R9G).
T5 construct: peptide consisting of residues 5-11 of histone 3 (H3 K9Men); made in house; host or cells: solid-phase chemical peptide synthesis
As to the kind of experiment: Fluorescence anisotropy binding to mutant H3 tail with Gly in place of Arg8. The settings on record: 27° C., 10 mM phosphate buffer pH 8.5; errors in parentheses. How it is done: FIG. 11. Fluorescence anisotropy of rac-A2B with H3 KMe3 where Arg8 has been mutated to Gly8 (10 mM sodium phosphate buffer pH 8.5).
as §3, §4

The target in experiment [5] is T6, WGGG-GKMe3 (Histone 3 peptide, Gly8) (Homo sapiens, UniProt P68431, R9G).
T6 construct: made in house; host or cells: solid-phase chemical peptide synthesis
The experiment in a line: Isothermal titration calorimetry, peptide titrated into A2B. The class given is binding. How it is done:
FIG. 12. Histone 3 peptide (WGGG-GKMe3) used as the titrant in ITC experiments to confirm A2B binding to KMe3.
Isothermal Titration calorimetry. Isothermal titration calorimetry measurements were conducted using an ITC200 from MicroCal, LLC to verify the binding data obtained by fluorescence anisotropy. A single 0.2 μL aliquot followed by 38 aliquots of 1 μL were titrated into the calorimetric cell every 2.5 minutes. The titrant used to determine the binding to KMe3 was a 2.0 mM solution of the H3 tail peptide in FIG. 12 (in 10 mM phosphate buffer, pH 8.5), containing a Trp for concentration determination and separated from the natural sequence by 3 glycine spacers. This peptide also contained Gly8 as opposed to Arg8 which is found in the native sequence. It has been shown that this mutation has minimal affect on the overall binding affinity. The cell was filled with a 0.2 mM solution of either rac- or meso-A2B (in 10 mM phosphate buffer, pH 8.5). All measurements were carried out at 26° C.
A general note: In ITC the heat of successive injections is recorded.

The target in experiment [6] is T7, H3 tail, Lys9 mutated to Gly (Homo sapiens, UniProt P68431, K10G).
T7 construct: A mutant H3 tail with Gly in place of Arg8; made in house; host or cells: solid-phase chemical peptide synthesis
As to the kind of experiment: Binding to H3 tail with Lys9 mutated to Gly.

A further experiment relates to Ac-KMe3-G-NH2. The experiment in a line: Amplification in biased A2B dynamic combinatorial library (LC-MS). Particulars: biased library A:B 2:1, 7.5 mM total; Ac-KMe3-G-NH2 template. As for the experimental part:
Using a biased library in which building blocks A and B were mixed in a 2:1 ratio (7.5 mM total), the selectivity of the receptors for different methylation states of lysine was investigated, using Ac—KMen-G-NH2 as the guests (n=0-3). A diverse library was generated in the absence of a template, with A2 and A2B3 as the dominant species and rac-A2B and meso-A2B constituting only 2.4% and 1.1% of the total library composition respectively.
Dynamic Combinatorial Chemistry. The relevant building blocks were individually dissolved in water, adding sufficient 1.0 M aqueous NaOH to fully deprotonate the thiols and carboxylic acids on the building blocks, using sonication when necessary. The pH of each solution was then adjusted to 8.5 using 1.0 M aqueous HCl and 1.0 M aqueous NaOH. […] The vials were capped and analyzed at various time points.
Analytical LC-MS. […] Mass spectra (ESI+) were acquired in ultrascan mode by using a drying temperature of 350° C., a nebulizer pressure of 45 psi, a drying gas flow of 10 L/min, and a capillary voltage of 3000 V. The reactions were monitored weekly (3 μL injections) until equilibrium was reached after about 3 weeks. […] The peak areas were integrated at 254 nm and the amplification factors were calculated (A.F.=% area of A2B in templated DCL/% area of A2B in untemplated DCL).

The mark [7] stands for this setting: 26° C., 10 mM phosphate buffer pH 8.5, read-out: Kd by ITC, binding to KMe3.

Where “and” joins values, the source holds several entries; their conditions need not be identical. Equal entries are not always repeated. Where two headings read alike, the source gives them in different places. Where only a bound is given, the exact number is not on record here.

The values below come from patent publication US20120190586A1, “Synthetic Receptors for Identification of Protein Posttranslation Modifications” (priority 2009, published 2012).

Turning to `O=C(O)C1=C(C(=O)O)C2c3ccc4cc3C1c1ccc(cc12)SSc1ccc2c(c1)C1C(C(=O)O)=C(C(=O)O)C2c2cc(ccc21)SSc1cc(cc(C(=O)O)c1)SS4` (racemic) [rac-A2B], the Kd was above 1200 µM in experiment [1] (27° C., 10 mM phosphate buffer pH 8.5); 166 µM in experiment [2]; 58 µM in experiment [3]; 25 µM in experiment [4]; 34 µM at H3 K9Me3 R8G; 20 µM in experiment [5] (setting [7]). In addition, in experiment [1] (fluorescence anisotropy), the “Binding to the unmethylated histone tail (in words)” value is “no appreciable binding”. Further, in experiment [4], the “Affinity for H3 K9Me3 peptide (in words)” value was “low micromolar affinity”. The “Binding to H3 tail with Lys9 mutated to Gly (in words)” value in experiment [6] is on record as “total loss of binding”. In the experiment with Ac-KMe3-G-NH2, the “Amplification in templated DCL, KMe3 guest” value is “approximately 10 fold”.
For `O=C(O)C1=C(C(=O)O)[C@@H]2c3ccc4cc3[C@H]1c1ccc(cc12)SSc1ccc2c(c1)[C@H]1C(C(=O)O)=C(C(=O)O)[C@@H]2c2cc(ccc21)SSc1cc(cc(C(=O)O)c1)SS4` [meso-A2B], the dissociation constant Kd was 73 µM in experiment [3]; 28 µM in experiment [4]; 12.8 µM and 13 µM in experiment [5] (setting [7]); 12.8 µM in experiment [5] (titration of WGGG-GKMe3 into receptor, read-out: Kd by ITC, binding to KMe3 (unit inferred)). In addition, the “Affinity for H3 K9Me3 peptide (in words)” value in experiment [4] is recorded as “low micromolar affinity”. Further, the “Amplification in templated DCL, KMe3 guest” value with Ac-KMe3-G-NH2 is on record as “approximately 10 fold”.

As usually defined, the Kd is the equilibrium constant for the complex coming apart.
